By IC50 is commonly meant the midpoint of a concentration-inhibition curve.

Results on seven compounds are retold here after patent US20160272645A1, “Heterocyclic Compounds and Methods of Use” (MEDIVATION TECHNOLOGIES, INC., priority 2013, published 2016).

The target of one experiment is T1, PI3Kβ (Homo sapiens, UniProt P42338).
T1 construct: purchased Reaction Biology Corporation
Put plainly: PI3K isoform profiling, PI3Kβ (PI3Kδ protocol). The experiment is classed as biochemical. The conditions noted are these: for inhibition at 0.3 µM: compound 0.3 μM, read-out: PI3Kβ @ 0.3 μM (% Inh); for IC50: 10 dose IC50. The source says:
(§1) PI3Kδ assay: The PIP3 product is detected by displacement of biotin-PIP3 from an energy transfer complex consisting of Europium labeled anti-GST monoclonal antibody, a GST-tagged pleckstrin homology (PH) domain, biotinylated PIP3 and Streptavidin-Allophycocyanin (APC). Excitation of Europium in the complex results in an energy transfer to the APC and a fluorescent emission at 665 nm. The PIP3 product formed by PI3-Kinase (h) activity displaces biotin-PIP3 from the complex resulting in a loss of energy transfer and thus a decrease in signal. This is a 3-step reaction: First, the kinase reaction with PIP2 substrate is carried out in the presence of ATP (10 μM), and the reaction is quenched with stop Solution, and then finally detect by adding Detection Mixture followed by incubation (10 min). Reaction procedure: 1) Prepare substrate in freshly prepared Reaction Buffer. 2) Deliver kinase into the substrate solution and gently mix. 3) Deliver compounds in 100% DMSO (1 μM) into the kinase reaction mixture by Acoustic technology (Echo550; nanoliter range), incubate for 10 min at RT. 4) Deliver ATP into the reaction mixture to initiate the reaction. 5) Incubate for 30 min at 30° C. 6) Quench the reaction with Stop Solution. 7) Add Detection Mixture, and incubate for overnight. 8) Measure HTRF: Ex=320 nm, ratio of Em=615 nm and Em=665 nm. The emission ratio is converted into μM PIP3 production based on PIP3 standard curves. The nonlinear regression to obtain the standard curve and IC50 values are performed using Graphpad Prism software. Assay Buffer: HEPES 50 mM (pH7.0), NaN3 0.02%, BSA 0.01%, Orthovanadate 0.1 mM, 1% DMSO. Detection buffer: HEPES 10 mM (pH7.0), BSA 0.02%, KF 0.16 M, EDTA 4 mM. Substrate: 10 μM PIP2 substrate (PI(4,5)P2).
(§2) Compounds of the invention were profiled in a 10 dose IC50 panel against PI3Kα, PI3Kβ, and PI3Kγ kinases, provided by Reaction Biology Corporation, applied to the PI3Kδ protocol provided in Example B1.

The test system of experiment [1] is CD69+B220+ cells (mouse spleen cells). Put plainly: B cell activation assay (IgD-stimulated CD69 on B220+ spleen cells, FACS). The experiment is classed as cell-based. As to conditions: 100 nM test compound, 30 min, then IgD 3 μg/mL 4 h, read-out: CD69 @ 100 nM (% Inh). Here is the method:
1 Female mouse approximately 2 months old was euthanized with CO2 and the spleen removed. The tissue was homogenized with a polished glass microscope slide. The cells were collected in 5 mL complete medium (RPMI+10% FBS+pen/strep), placed in a 15 mL falcon tube and centrifuged at 500×g for 5 min. The supernatant was discarded and the pellet was resuspended in 3 mL of ACK lysis buffer (NH4Cl 0.17M, KHCO3 10 mM, EDTA-Na2 0.1 mM, pH 7.2), incubated at 37° C. for 5 min. 2 mL complete medium was added and the mixture centrifuged at 500×g for 5 min. The supernatant was discarded and the pellet resuspended in 1 mL complete medium. The mixture was passed through a […] cell strainer and collect in 50 mL falcon tube. Enough medium was added to have a total of 10 mL. The cells were counted and seeded in 24 or 48-well plate in 1 mL complete medium at 10^6 cells/mL. The plate was placed in a 37° C. incubator for 15 min. The cells were treated for 30 min at 37° C. with 100 nM test compound dissolved in 100% DMSO. 3 μL IgD (Accurate chemical and scientific corp.) was added at a final concentration of 3 μg/mL and the mixture incubated at 37° C. for 4 h. The cells were collected in 1.5 mL eppendorf tubes, centrifuged at 500×g for 5 min and then resuspended in 100 μL of PBS+2% FBS. The following antibodies were added: α-B220 PE (pharmingen #553090), α-CD69 APC (pharmingen #60689), live/dead fixable aqua dead cell stain kit (life technologies # L34957) all at 1:300, and the mixture incubated for 15 min at 4° C. in the dark. To this was added 900 μL of PBS+2% FBS and the mixture centrifuged at 500×g for 5 min. The supernatant was removed and the pellet resuspended in 300 μL of PBS+2% FBS and mixed well. The mixture was transferred to a cytometer tube. The samples were run in the FACS Canto II cytometer and quantified by the number of CD69+B220+ cells as a percentage of the total number of B220+ alive cells.

The next experiment has as its target T2, PI3Kδ (Homo sapiens, UniProt O00329).
T2 construct: purchased Reaction Biology Corporation
Kind of experiment: PI3Kδ kinase profiling, HTRF PIP3 displacement assay (Reaction Biology). The format is biochemical. The conditions noted are these: for inhibition at 1 µM: compound 1 μM, ATP 10 μM, read-out: PI3Kδ @ 1 μM (% Inh).
Source text: Compounds of the invention were profiled in a 10 dose IC50 panel against BTK and PI3Kδ, both provided by Reaction Biology Corporation.
as §1

The target of the next experiment is T3, PI3Kα (Homo sapiens, UniProt P42336).
T3 construct: purchased Reaction Biology Corporation
T3 sequence (P42336 whole entry): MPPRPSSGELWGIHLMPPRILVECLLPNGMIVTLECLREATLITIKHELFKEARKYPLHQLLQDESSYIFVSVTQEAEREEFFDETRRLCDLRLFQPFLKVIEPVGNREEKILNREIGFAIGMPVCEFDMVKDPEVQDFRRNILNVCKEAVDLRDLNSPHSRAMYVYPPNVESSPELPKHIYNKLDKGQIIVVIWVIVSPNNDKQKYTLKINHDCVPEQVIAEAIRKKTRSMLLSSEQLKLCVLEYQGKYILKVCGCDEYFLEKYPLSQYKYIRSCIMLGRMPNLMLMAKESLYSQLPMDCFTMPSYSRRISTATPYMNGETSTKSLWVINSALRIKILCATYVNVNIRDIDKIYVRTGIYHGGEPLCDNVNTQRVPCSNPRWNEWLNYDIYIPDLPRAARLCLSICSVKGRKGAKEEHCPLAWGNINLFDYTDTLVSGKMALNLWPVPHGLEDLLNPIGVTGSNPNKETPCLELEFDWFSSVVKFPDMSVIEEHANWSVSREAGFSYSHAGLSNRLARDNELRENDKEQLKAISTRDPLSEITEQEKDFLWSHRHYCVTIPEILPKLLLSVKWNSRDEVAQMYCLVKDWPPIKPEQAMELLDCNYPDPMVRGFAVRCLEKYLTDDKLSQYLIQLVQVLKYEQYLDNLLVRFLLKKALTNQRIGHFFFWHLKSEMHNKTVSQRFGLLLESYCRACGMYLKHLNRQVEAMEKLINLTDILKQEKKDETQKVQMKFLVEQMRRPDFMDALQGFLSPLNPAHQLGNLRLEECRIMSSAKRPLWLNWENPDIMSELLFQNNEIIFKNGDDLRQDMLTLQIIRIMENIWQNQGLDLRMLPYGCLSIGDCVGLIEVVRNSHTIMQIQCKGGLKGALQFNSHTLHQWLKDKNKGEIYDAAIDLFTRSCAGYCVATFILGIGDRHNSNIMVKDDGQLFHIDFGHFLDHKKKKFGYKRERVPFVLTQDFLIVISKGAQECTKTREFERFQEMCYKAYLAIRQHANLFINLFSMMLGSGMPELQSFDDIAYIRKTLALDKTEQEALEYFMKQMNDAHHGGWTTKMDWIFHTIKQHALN
T3 sequence (P27986 whole entry partner): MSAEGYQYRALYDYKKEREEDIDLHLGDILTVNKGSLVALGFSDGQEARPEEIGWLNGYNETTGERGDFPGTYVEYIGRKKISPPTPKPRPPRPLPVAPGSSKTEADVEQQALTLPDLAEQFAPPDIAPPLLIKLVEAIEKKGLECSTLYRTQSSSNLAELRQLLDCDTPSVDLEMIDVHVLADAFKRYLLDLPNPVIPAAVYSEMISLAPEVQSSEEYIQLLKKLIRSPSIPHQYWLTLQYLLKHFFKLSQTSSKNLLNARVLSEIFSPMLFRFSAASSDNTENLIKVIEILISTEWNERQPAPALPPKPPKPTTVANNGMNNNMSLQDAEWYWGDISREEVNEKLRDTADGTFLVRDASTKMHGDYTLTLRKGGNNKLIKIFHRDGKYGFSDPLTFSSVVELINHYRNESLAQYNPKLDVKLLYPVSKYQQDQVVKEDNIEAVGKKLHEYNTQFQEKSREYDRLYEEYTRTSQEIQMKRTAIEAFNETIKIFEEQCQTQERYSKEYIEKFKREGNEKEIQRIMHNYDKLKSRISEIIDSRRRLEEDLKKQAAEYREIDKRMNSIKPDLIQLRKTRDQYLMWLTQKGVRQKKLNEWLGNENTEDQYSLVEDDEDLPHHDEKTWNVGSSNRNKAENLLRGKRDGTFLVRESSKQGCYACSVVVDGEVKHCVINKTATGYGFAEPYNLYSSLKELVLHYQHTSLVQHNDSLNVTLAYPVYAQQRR
Put plainly: PI3K isoform profiling, PI3Kα (PI3Kδ protocol). The experiment is classed as biochemical. As to conditions: for inhibition at 0.3 µM: compound 0.3 μM, read-out: PI3Kα @ 0.3 μM (% Inh); for IC50: 10 dose IC50.
Source text: as §1, §2

The target in another experiment is T4, PI3Kγ (Homo sapiens, UniProt P48736).
T4 construct: purchased Reaction Biology Corporation
T4 sequence (P48736 whole entry): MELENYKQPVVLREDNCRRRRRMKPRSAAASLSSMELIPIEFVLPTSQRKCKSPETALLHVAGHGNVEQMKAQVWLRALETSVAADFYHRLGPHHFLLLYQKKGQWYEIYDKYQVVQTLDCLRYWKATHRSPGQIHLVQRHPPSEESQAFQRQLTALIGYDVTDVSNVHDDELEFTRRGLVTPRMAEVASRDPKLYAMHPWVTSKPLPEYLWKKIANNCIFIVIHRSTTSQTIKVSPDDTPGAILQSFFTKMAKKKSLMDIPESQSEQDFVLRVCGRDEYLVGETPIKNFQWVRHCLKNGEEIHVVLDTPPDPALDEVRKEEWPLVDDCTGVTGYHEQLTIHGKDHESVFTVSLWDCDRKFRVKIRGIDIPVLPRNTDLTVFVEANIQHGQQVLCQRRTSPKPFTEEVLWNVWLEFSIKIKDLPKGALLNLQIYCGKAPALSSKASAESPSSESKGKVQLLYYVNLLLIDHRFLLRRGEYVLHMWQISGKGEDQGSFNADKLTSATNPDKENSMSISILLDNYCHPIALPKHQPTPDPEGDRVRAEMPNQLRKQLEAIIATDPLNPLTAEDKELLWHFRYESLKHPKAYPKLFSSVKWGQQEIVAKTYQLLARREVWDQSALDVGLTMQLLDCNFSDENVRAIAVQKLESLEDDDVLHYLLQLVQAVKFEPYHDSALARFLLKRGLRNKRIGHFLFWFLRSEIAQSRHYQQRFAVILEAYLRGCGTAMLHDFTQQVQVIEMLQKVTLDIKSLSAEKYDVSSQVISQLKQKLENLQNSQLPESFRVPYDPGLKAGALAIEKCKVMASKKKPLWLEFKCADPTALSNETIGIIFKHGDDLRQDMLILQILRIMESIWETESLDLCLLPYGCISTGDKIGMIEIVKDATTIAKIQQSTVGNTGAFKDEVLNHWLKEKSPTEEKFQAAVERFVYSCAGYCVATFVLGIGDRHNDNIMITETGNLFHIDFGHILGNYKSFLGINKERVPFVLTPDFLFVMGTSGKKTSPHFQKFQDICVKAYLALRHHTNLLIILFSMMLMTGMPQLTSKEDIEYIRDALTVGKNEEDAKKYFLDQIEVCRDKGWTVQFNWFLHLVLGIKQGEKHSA
Kind of experiment: PI3K isoform profiling, PI3Kγ (PI3Kδ protocol). The experiment is classed as biochemical. The conditions noted are these: for inhibition at 0.3 µM: compound 0.3 μM, read-out: PI3Kγ @ 0.3 μM (% Inh); for IC50: 10 dose IC50.
Source text: as §1, §2

The test system of experiment [2] is CD69+B220+ cells (mouse spleen cells). Put plainly: B cell activation assay (IgD-stimulated CD69 on B220+ spleen cells, FACS). The experiment is classed as cell-based. As to conditions: IgD 3 μg/mL 4 h.

T1 sequence (P42338 whole entry): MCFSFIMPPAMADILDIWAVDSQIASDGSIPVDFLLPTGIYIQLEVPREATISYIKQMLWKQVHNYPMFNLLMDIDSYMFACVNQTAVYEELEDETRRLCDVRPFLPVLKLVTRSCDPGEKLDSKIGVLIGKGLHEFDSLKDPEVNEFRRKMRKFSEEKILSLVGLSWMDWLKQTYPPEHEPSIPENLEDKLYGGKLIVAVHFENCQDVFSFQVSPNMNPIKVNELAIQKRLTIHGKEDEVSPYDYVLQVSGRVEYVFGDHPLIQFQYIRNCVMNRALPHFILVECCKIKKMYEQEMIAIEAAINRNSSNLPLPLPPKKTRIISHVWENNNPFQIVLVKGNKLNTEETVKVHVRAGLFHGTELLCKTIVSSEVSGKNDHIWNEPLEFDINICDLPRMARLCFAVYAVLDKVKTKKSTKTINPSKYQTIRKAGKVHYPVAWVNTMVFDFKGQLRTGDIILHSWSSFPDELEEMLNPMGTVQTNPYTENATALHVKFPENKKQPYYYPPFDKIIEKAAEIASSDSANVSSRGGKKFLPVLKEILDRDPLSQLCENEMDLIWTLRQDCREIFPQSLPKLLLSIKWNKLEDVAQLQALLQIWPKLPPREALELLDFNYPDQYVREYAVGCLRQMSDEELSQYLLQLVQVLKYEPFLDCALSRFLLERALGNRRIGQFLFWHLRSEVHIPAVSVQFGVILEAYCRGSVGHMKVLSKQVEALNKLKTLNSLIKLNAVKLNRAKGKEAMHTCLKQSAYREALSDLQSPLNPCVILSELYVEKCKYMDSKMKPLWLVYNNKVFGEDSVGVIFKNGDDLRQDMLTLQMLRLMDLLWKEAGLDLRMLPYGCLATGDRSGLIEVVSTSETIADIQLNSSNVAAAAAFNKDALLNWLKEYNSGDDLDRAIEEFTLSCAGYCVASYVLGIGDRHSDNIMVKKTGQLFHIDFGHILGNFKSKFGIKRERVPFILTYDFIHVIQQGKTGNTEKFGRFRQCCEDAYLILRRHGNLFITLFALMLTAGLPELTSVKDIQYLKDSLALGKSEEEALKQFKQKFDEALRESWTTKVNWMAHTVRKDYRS
T1 sequence (P27986 whole entry partner): as the sequence (P27986 whole entry partner) above
T2 sequence (O00329 whole entry): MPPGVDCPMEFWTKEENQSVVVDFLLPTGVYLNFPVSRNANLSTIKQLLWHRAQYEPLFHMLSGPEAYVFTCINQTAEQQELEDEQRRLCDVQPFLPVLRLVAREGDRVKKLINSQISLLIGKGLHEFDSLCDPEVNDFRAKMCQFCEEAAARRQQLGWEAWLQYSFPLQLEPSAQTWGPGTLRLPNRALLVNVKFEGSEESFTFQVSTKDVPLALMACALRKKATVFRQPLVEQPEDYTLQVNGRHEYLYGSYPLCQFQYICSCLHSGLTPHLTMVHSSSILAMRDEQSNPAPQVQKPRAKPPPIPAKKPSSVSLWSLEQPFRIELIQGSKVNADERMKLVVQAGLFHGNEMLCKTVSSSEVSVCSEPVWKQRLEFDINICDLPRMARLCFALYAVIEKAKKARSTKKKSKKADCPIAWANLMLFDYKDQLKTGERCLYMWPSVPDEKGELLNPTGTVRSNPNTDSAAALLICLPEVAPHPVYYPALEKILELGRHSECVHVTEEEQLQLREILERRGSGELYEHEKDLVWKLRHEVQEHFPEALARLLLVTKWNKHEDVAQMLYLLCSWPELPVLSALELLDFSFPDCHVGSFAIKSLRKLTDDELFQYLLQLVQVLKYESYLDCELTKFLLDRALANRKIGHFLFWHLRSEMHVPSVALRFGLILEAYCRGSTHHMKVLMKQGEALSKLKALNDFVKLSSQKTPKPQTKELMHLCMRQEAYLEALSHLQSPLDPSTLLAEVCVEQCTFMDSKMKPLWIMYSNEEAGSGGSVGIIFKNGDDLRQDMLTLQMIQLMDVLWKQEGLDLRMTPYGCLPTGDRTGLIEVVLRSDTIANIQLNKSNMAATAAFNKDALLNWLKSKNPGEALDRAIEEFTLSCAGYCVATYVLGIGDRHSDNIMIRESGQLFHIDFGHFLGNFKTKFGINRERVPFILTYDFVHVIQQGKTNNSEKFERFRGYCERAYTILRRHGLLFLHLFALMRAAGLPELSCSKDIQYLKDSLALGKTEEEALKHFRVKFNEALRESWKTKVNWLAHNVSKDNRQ
T2 sequence (P27986 whole entry partner): as the sequence (P27986 whole entry partner) above

As for `Nc1ncnc2c1c(-c1cc(O)cc(F)c1)nn2CCNc1ccccc1` [Compound 1, 3-(4-amino-1-(2-(phenylamino)ethyl)-1H-pyrazolo [3,4-d]pyrimidin-3-yl)-5-fluorophenol], the figures for the inhibition at 0.3 µM at PI3Kβ, at PI3Kα and at PI3Kγ were 62%, 50.5% and 49.7%, respectively. Besides, the inhibition at 0.1 µM in experiment [1] came to 74.5 ± 6.72%. The IC50 turned out to be 0.01 µM on PI3Kδ and 0.0551 ± 0.0383 µM in experiment [2].
In the case of `C=CC(=O)N(CCn1nc(-c2cc(O)cc(F)c2)c2c(N)ncnc21)c1ccccc1` [Compound 2, N-(2-(4-amino-3-(3-fluoro-5-hydroxyphenyl)-1H-pyrazolo[3,4-d]pyrimidin-1-yl)ethyl)-N-phenylacrylamide], the IC50 at PI3Kβ was 5.28 µM; on PI3Kδ, 0.0516 µM; against PI3Kα, 4.21 µM; on PI3Kγ it was 9.07 µM. For the same compound, the inhibition at 0.3 µM is 30.4% on PI3Kβ, 20.1% on PI3Kα and -2.49% on PI3Kγ. Besides, in experiment [1], the inhibition at 0.1 µM was -114 ± 72.2%.
On to `C=CC(=O)N(CCn1nc(-c2cc(O)cc(F)c2)c2c(N)ncnc21)Cc1ccccc1` [Compound 5, N-(2-(4-amino-3-(3-fluoro-5-hydroxyphenyl)-1H-pyrazolo[3,4-d]pyrimidin-1-yl)ethyl)-N-benzylacrylamide], for which the IC50 worked out at 3.41 µM against PI3Kβ, 0.013 µM at PI3Kδ, 3.32 µM against PI3Kα and 10.5 µM at PI3Kγ. The figures for the inhibition at 0.3 µM at PI3Kβ, at PI3Kα and on PI3Kγ were 45.8%, 26.4% and 34.9%, respectively. For the same compound, in experiment [1], the inhibition at 0.1 µM turned out to be 12.5 ± 22.3%.
As for `C=CC(=O)N(CCn1nc(-c2cc(O)cc(F)c2)c2c(N)ncnc21)Cc1ccc(F)cc1` [Compound 10, N-{2-[4-amino-3-(3-fluoro-5-hydroxyphenyl)-1H-pyrazolo [3,4-d]pyrimidin-1-yl]ethyl}-N-[(4-fluorophenyl)methyl]prop-2-enamide], the inhibition at 0.3 µM was 16.3% at PI3Kβ and -3.88% at PI3Kγ. In experiment [1], the inhibition at 0.1 µM was -23.7 ± 39.7%. Moreover, the IC50 on PI3Kδ turned out to be 0.0128 µM; at PI3Kα, 0.504 µM. The inhibition at 1 µM on PI3Kδ was found to be 89%.
In the case of `C=CC(=O)N(CCn1nc(-c2cc(O)cc(F)c2)c2c(N)ncnc21)Cc1ccccc1F` [Compound 11, N-[2-[4-amino-3-(3-fluoro-5-hydroxy-phenyl)pyrazolo[3,4-d]pyrimidin-1-yl]ethyl]-N-[(2-fluorophenyl)methyl]prop-2-enamide], the values for the inhibition at 0.3 µM at PI3Kβ and on PI3Kγ were 41% and 21.4%, respectively. The inhibition at 0.1 µM in experiment [1] is -23.7 ± 39.7%. The results for the 50% inhibitory concentration (IC50) on PI3Kδ and at PI3Kα were 0.032 µM and 3.22 µM, respectively. On PI3Kδ, the inhibition at 1 µM was found to be 82.4%.
For `C=CC(=O)N(CCn1nc(-c2cc(O)cc(F)c2)c2c(N)ncnc21)Cc1ccc(Cl)cc1` [Compound 12, N-{2-[4-amino-3-(3-fluoro-5-hydroxyphenyl)-1H-pyrazolo[3,4-d]pyrimidin-1-yl]ethyl}-N-[(4-chlorophenyl)methyl]prop-2-enamide], the inhibition at 0.3 µM on PI3Kβ was found to be 31.3%; on PI3Kγ, 21.5%. For the same compound, the inhibition at 0.1 µM in experiment [1] was -44.7 ± 53.6%. For the same compound, the IC50 worked out at 0.0097 µM on PI3Kδ and 0.869 µM against PI3Kα.
As for `C=CC(=O)N(CCn1nc(-c2cc(O)c(F)c(F)c2)c2c(N)ncnc21)Cc1ccc(Cl)cc1` [Compound 16, N-{2-[4-amino-3-(3,4-difluoro-5-hydroxyphenyl)-1H-pyrazolo[3,4-d]pyrimidin-1-yl]ethyl}-N-[(4-chlorophenyl)methyl]prop-2-enamide], the inhibition at 0.3 µM on PI3Kβ amounted to 25.2%; on PI3Kγ, 14.6%. In addition, the inhibition at 0.1 µM in experiment [1] is -44.8 ± 29.4%. For the same compound, the values for the IC50 at PI3Kδ and at PI3Kα were 0.0124 µM and 0.29 µM, respectively.
